Source: patent US5738858A, “Skin care compositions containing fatty hydroxyethyl imidazoline surfactants and retinol or retinyl ester” (priority 1996, dated 1998)

Assays:
ARAT = assay: In vitro microsomal esterification of retinol, ARAT catalyzed (retinyl palmitate formation); details: Table 2, 1 hour, 37° C.
Protocol: (§3) A solution containing 0.1M sodium phosphate pH 7 buffer, 5 mM dithiothreitol, 2 mg/ml bovine serum albumin, 40 micromolar palmitoyl CoA, 40 micromolar dilauroyl phosphatidyl choline, 10 micromolar retinol and a test compound or solvent blank, was incubated for 1 hour at 37° C. with a microsomal fraction isolated from bovine retinal pigment epithelial cells. After incubation, the reaction was quenched by addition of an equal volume of ethanol, and the retinyl esters formed (retinyl palmitate from the ARAT catalyzed reaction, and retinyl laurate from the LRAT catalyzed reaction) were extracted with hexane.

[1] = test system: keratinocyte differentiation (TGase 1); assay: Transglutaminase (TGase 1) ELISA normalized to DNA, keratinocyte differentiation (Example 1B); assay type: cell-based, human; details: […]10^-7 to […]10^-9 M; vs ethanol control
Protocol: Human keratinocytes, isolated from neonatal foreskin by trypsin treatment were grown in Dulbecco Modification Eagle (DME) Hams F12 (1:1) medium/10% fetal calf serum in the presence of irradiated 3T3 mouse fibroblasts for establishing dividing keratinocyte colonies. Cells were grown under the above condition until their second passage and kept frozen for future use. Frozen second passage keratinocytes were thawed and plated into the above medium and grown for five days before they were switched to a serum-free MCDB 153-based medium keratinocyte growth medium (KGM) from Clonetics Corporation, San Diego, Calif., containing 0.15 mM Ca, or keratinocyte serum-free media (KSFM) from GIBCO containing 0.09 mM Ca). On day 7, when the cells were 80-90% confluent, they were trypsinized and plated in the serum-free medium for the various experiments. […]
(§1) Keratinocytes (cultured as described above) were plated in 96 well plates at a density of 3,000 cells per well in 200 μl media. […] The absorbance of samples was read at 492 nm in the plate reader. […] TGase levels were determined by subtracting background from the readings from each treatment and determining mean±s.d. for the replicates exposed to both Ab.
(§2) The level of TGase-1 detected after treatment of the cells could be influenced by cell number, i.e., the greater the number of cells the greater the level of TGase-1 detected. […]

[2] = test system: keratinocyte differentiation (TGase 1); assay: Transglutaminase (TGase 1) ELISA, keratinocyte differentiation (Example 4); assay type: cell-based, human; details: used alone; Table 4
Protocol: Human keratinocytes, isolated from neonatal foreskin by trypsin treatment were grown in Dulbecco Modification Eagle (DME) Hams F12 (1:1) medium/10% fetal calf serum in the presence of irradiated 3T3 mouse fibroblasts for establishing dividing keratinocyte colonies. Cells were grown under the above condition until their second passage and kept frozen for future use. Frozen second passage keratinocytes were thawed and plated into the above medium and grown for five days before they were switched to a serum-free MCDB 153-based medium keratinocyte growth medium (KGM) from Clonetics Corporation, San Diego, Calif., containing 0.15 mM Ca, or keratinocyte serum-free media (KSFM) from GIBCO containing 0.09 mM Ca). On day 7, when the cells were 80-90% confluent, they were trypsinized and plated in the serum-free medium for the various experiments.
During the process of terminal differentiation in the epidermis, a 15 nm thick layer of protein, known as the cornified envelope (CE) is formed on the inner surface of the cell periphery. The CE is composed of numerous distinct proteins which have been cross-linked together by the formation of N ^ε -(γ-glutamyl) lysine isodipeptide bonds catalyzed by the action of at least two different transglutaminases (TGases) expressed in the epidermis. TGase 1 is expressed in abundance in the differentiated layers of the epidermis, especially the granular layer, but is absent in the undifferentiated basal epidermis. […]
as §1, with “[…]” for “200”, “[…] of cell culture” for “μl”, “Transglutaminase I” for “TGase”, “subtracted” for “subtracting”, “the mean s.d.” for “mean±s.d.”, “antibodies.” for “Ab.”
as §2

[3] = test system: keratinocyte proliferation; assay: 3H-Thymidine incorporation / keratinocyte proliferation (Example 1A); assay type: cell-based, human; details: […]10^-7 to […]10^-9 M; vs ethanol control and retinol treatments
LRAT = target: T1, LRAT (Bos taurus, UniProt Q9BGL2); assay: In vitro microsomal esterification of retinol, LRAT catalyzed (retinyl laurate formation); assay type: biochemical, bovine; details: Table 2, 1 hour, 37° C.
T1 construct: microsomal fraction isolated from bovine retinal pigment epithelial cells; from tissue; host or cells: microsomes of bovine retinal pigment epithelial cells (method cited: Saari and Bredberg, J. Biol. Chem. 1988)
T1 sequence (Q9BGL2 1-230): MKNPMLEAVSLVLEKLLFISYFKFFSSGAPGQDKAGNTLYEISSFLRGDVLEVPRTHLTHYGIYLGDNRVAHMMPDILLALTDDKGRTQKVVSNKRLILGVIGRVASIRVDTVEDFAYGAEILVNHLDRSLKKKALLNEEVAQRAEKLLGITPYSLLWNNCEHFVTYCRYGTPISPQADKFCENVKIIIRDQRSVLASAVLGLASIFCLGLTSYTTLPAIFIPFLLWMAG
Protocol: as §3

Compound | % INHIB. ARAT (ARAT; 100 μM) [%] | keratinocyte differentiation (in words) [2] | other results
CCCCCCCCCCCC(=O)N(C)CC(=O)O [lauroyl sarcosine] | 20 |  | 
CC1=C(/C=C/C(C)=C/C=C/C(C)=C/CO)C(C)(C)CCC1 [ROH, retinol] |  | did not affect keratinocyte differentiation when used alone | keratinocyte differentiation / transglutaminase level (in words) [1]: The decrease in transglutaminase level was dose dependent
O=c1cc[nH]c(=O)[nH]1 [uracil] | 0 |  | 
N[C@@H](Cc1c[nH]c2ccccc12)C(=O)O [tryptophan] | 0 |  | 
Nc1ncnc2nc[nH]c12 [adenine] | 0 |  | 
CC1=C(/C=C/C(C)=C/C=C/C(C)=C/C(=O)O)C(C)(C)CCC1 [RA, retinoic acid] |  | substantially decreased keratinocyte differentiation | keratinocyte proliferation (in words) [3]: significantly increased keratinocyte proliferation over both the ethanol control and each of the 2.5×10^-7 M, 2.5×10^-8 M and 2.5×10^-9 M retinol treatments and they did so in a dose dependant manner
O=C1C(N(CO)C(=O)NCO)N(CO)C(=O)N1CO (stereo not shown) [diazolidinyl urea] |  |  | % INHIB. LRAT (LRAT; 0 μM as printed): 0%; % INHIB. ARAT (ARAT; 0 μM as printed): 0%
CCCCCCCC/C=C\CCCCCCCC(=O)NCCC[N+](C)(C)CC(=O)[O-] [oleamidopropyl betaine] |  |  | % INHIB. LRAT (LRAT; 100 μM): 0%
CCCCCCCCCCCCCCCC(=O)OC/C=C(C)/C=C/C=C(C)/C=C/C1=C(C)CCCC1(C)C [RP, retinyl palmitate] |  | did not affect keratinocyte differentiation when used alone | 
Cc1ncc(C[n+]2csc(CCO)c2C)c(N)n1 [thiamine] | 0 |  | 
